In the supplement of paper PMC10307832:

How the values were obtained:
Test in all cases: relative viability (nuclei count vs DMSO), 5 days (fraction); higher = more cells survive
NCI-H1650 = system: NCI-H1650
Summary of the method: (§1)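 Lung cancer cell lines in 1536-well plates got either a single drug or a fixed anchor-drug dose together with five library-drug doses (not always all listed) in √10 steps, by pin tool, on the day after seeding. Nuclei were counted after 5 days, and relative viability is the treated-to-vehicle ratio of nuclei counts. Values are medians of duplicate plates.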

COR-L 105 = system: COR-L 105
Summary of the method: as §1

LU99A = system: LU99A
Summary of the method: as §1

NCI-H838 = system: NCI-H838
Summary of the method: as §1

NCI-H2170 = system: NCI-H2170
Summary of the method: as §1

PC-14 = system: PC-14
Summary of the method: as §1

HARA = system: HARA
Summary of the method: as §1

NCI-H1666 = system: NCI-H1666
Summary of the method: as §1

EKVX = system: EKVX
Summary of the method: as §1

LK-2 = system: LK-2
Summary of the method: as §1

CAL-12T = system: CAL-12T
Summary of the method: as §1

NCI-H3122 = system: NCI-H3122
Summary of the method: as §1

NCI-H441 = system: NCI-H441
Summary of the method: as §1

HCC-366 = system: HCC-366
Summary of the method: as §1

BEN = system: BEN
Summary of the method: as §1

NCI-H2009 = system: NCI-H2009
Summary of the method: as §1

NCI-H2023 = system: NCI-H2023
Summary of the method: as §1

NCI-H1437 = system: NCI-H1437
Summary of the method: as §1

NCI-H727 = system: NCI-H727
Summary of the method: as §1

NCI-H661 = system: NCI-H661
Summary of the method: as §1

201T = system: 201T
Summary of the method: as §1

COR-L23 = system: COR-L23
Summary of the method: as §1

SW 900 = system: SW 900
Summary of the method: as §1

Compound: COc1cc(N2CCC(C(N)=O)CC2)ccc1Nc1nc(N)c(Cl)c(Nc2ccccc2S(=O)(=O)C(C)C)n1 [HG-5-88-01] + CC(=O)Nc1cccc(-n2c(=O)n(C3CC3)c(=O)c3c(Nc4ccc(I)cc4F)n(C)c(=O)c(C)c32)c1 [Trametinib] (partner 0.02 µM)
- relative viability (NCI-H1650; first compound 0.04 µM): 0.586
- relative viability (NCI-H1650; first compound 0.1265 µM): 0.633
- relative viability (NCI-H1650; first compound 0.4 µM): 0.559
- relative viability (NCI-H1650; first compound 1.265 µM): 0.386
- relative viability (NCI-H1650; first compound 4 µM): 0.532
- relative viability (COR-L 105; first compound 0.04 µM): 0.471
- relative viability (COR-L 105; first compound 0.1265 µM): 0.423
- relative viability (COR-L 105; first compound 0.4 µM): 0.402
- relative viability (COR-L 105; first compound 1.265 µM): 0.319
- relative viability (COR-L 105; first compound 4 µM): 0.421
- relative viability (LU99A; first compound 0.04 µM): 0.584
- relative viability (LU99A; first compound 0.1265 µM): 0.565
- relative viability (LU99A; first compound 0.4 µM): 0.543
- relative viability (LU99A; first compound 1.265 µM): 0.429
- relative viability (LU99A; first compound 4 µM): 0.493
- relative viability (NCI-H838; first compound 0.04 µM): 0.518
- relative viability (NCI-H838; first compound 0.1265 µM): 0.439
- relative viability (NCI-H838; first compound 0.4 µM): 0.435
- relative viability (NCI-H838; first compound 1.265 µM): 0.409
- relative viability (NCI-H838; first compound 4 µM): 0.354
- relative viability (NCI-H2170; first compound 0.04 µM): 0.961
- relative viability (NCI-H2170; first compound 0.1265 µM): 0.964
- relative viability (NCI-H2170; first compound 0.4 µM): 0.894
- relative viability (NCI-H2170; first compound 1.265 µM): 0.672
- relative viability (NCI-H2170; first compound 4 µM): 1.03
- relative viability (PC-14; first compound 0.04 µM): 0.825
- relative viability (PC-14; first compound 0.1265 µM): 0.836
- relative viability (PC-14; first compound 0.4 µM): 0.626
- relative viability (PC-14; first compound 1.265 µM): 0.28
- relative viability (PC-14; first compound 4 µM): 0.0722
- relative viability (HARA; first compound 0.04 µM): 1.01
- relative viability (HARA; first compound 0.1265 µM): 0.709
- relative viability (HARA; first compound 0.4 µM): 0.91
- relative viability (HARA; first compound 1.265 µM): 0.394
- relative viability (HARA; first compound 4 µM): 0.465
- relative viability (NCI-H1666; first compound 0.04 µM): 0.942
- relative viability (NCI-H1666; first compound 0.1265 µM): 0.918
- relative viability (NCI-H1666; first compound 0.4 µM): 0.853
- relative viability (NCI-H1666; first compound 1.265 µM): 0.775
- relative viability (NCI-H1666; first compound 4 µM): 0.621
- relative viability (EKVX; first compound 0.04 µM): 0.367
- relative viability (EKVX; first compound 0.1265 µM): 0.36
- relative viability (EKVX; first compound 0.4 µM): 0.278
- relative viability (EKVX; first compound 4 µM): 0.266
- relative viability (LK-2; first compound 0.04 µM): 0.927
- relative viability (LK-2; first compound 0.1265 µM): 0.911
- relative viability (LK-2; first compound 0.4 µM): 0.728
- relative viability (LK-2; first compound 4 µM): 0.514
- relative viability (CAL-12T; first compound 0.04 µM): 0.377
- relative viability (CAL-12T; first compound 0.1265 µM): 0.378
- relative viability (CAL-12T; first compound 0.4 µM): 0.3
- relative viability (CAL-12T; first compound 1.265 µM): 0.227
- relative viability (CAL-12T; first compound 4 µM): 0.201
- relative viability (NCI-H3122; first compound 0.04 µM): 0.223
- relative viability (NCI-H3122; first compound 0.1265 µM): 0.169
- relative viability (NCI-H3122; first compound 0.4 µM): 0.154
- relative viability (NCI-H3122; first compound 1.265 µM): 0.132
- relative viability (NCI-H3122; first compound 4 µM): 0.0965
- relative viability (NCI-H441; first compound 0.04 µM): 0.543
- relative viability (NCI-H441; first compound 0.1265 µM): 0.428
- relative viability (NCI-H441; first compound 0.4 µM): 0.455
- relative viability (NCI-H441; first compound 1.265 µM): 0.345
- relative viability (NCI-H441; first compound 4 µM): 0.336
- relative viability (HCC-366; first compound 0.04 µM): 0.429
- relative viability (HCC-366; first compound 0.1265 µM): 0.366
- relative viability (HCC-366; first compound 0.4 µM): 0.365
- relative viability (HCC-366; first compound 1.265 µM): 0.361
- relative viability (HCC-366; first compound 4 µM): 0.243
- relative viability (BEN; first compound 0.04 µM): 1.04
- relative viability (BEN; first compound 0.1265 µM): 1.12
- relative viability (BEN; first compound 0.4 µM): 1.16
- relative viability (BEN; first compound 1.265 µM): 0.76
- relative viability (BEN; first compound 4 µM): 1.06
- relative viability (NCI-H2009; first compound 0.04 µM): 0.272
- relative viability (NCI-H2009; first compound 0.1265 µM): 0.271
- relative viability (NCI-H2009; first compound 0.4 µM): 0.264
- relative viability (NCI-H2009; first compound 1.265 µM): 0.211
- relative viability (NCI-H2009; first compound 4 µM): 0.295
- relative viability (NCI-H2023; first compound 0.04 µM): 0.563
- relative viability (NCI-H2023; first compound 0.1265 µM): 0.535
- relative viability (NCI-H2023; first compound 0.4 µM): 0.475
- relative viability (NCI-H2023; first compound 1.265 µM): 0.364
- relative viability (NCI-H2023; first compound 4 µM): 0.2
- relative viability (NCI-H1437; first compound 0.04 µM): 0.581
- relative viability (NCI-H1437; first compound 0.1265 µM): 0.56
- relative viability (NCI-H1437; first compound 0.4 µM): 0.447
- relative viability (NCI-H1437; first compound 1.265 µM): 0.475
- relative viability (NCI-H1437; first compound 4 µM): 0.333
- relative viability (NCI-H727; first compound 0.04 µM): 0.379
- relative viability (NCI-H727; first compound 0.1265 µM): 0.394
- relative viability (NCI-H727; first compound 0.4 µM): 0.399
- relative viability (NCI-H727; first compound 4 µM): 0.364
- relative viability (NCI-H661; first compound 0.04 µM): 0.591
- relative viability (NCI-H661; first compound 0.1265 µM): 0.666
- relative viability (NCI-H661; first compound 0.4 µM): 0.573
- relative viability (NCI-H661; first compound 1.265 µM): 0.554
- relative viability (NCI-H661; first compound 4 µM): 0.608
- relative viability (201T; first compound 0.04 µM): 0.697
- relative viability (201T; first compound 0.1265 µM): 0.699
- relative viability (201T; first compound 1.265 µM): 0.694
- relative viability (201T; first compound 4 µM): 0.782
- relative viability (COR-L23; first compound 0.04 µM): 0.502
- relative viability (COR-L23; first compound 0.1265 µM): 0.664
- relative viability (COR-L23; first compound 0.4 µM): 0.51
- relative viability (COR-L23; first compound 1.265 µM): 0.488
- relative viability (COR-L23; first compound 4 µM): 0.368
- relative viability (SW 900; first compound 0.04 µM): 0.941
- relative viability (SW 900; first compound 0.1265 µM): 0.943
- relative viability (SW 900; first compound 0.4 µM): 0.875
- relative viability (SW 900; first compound 1.265 µM): 0.627
- relative viability (SW 900; first compound 4 µM): 0.685
